# Values of other authors in patent publication US20240251900A1, “PATCH FOR TARGETED DELIVERY OF HAIR COMPOSITION AND METHOD FOR APPLYING SAME” (Better Not Younger Corporation, priority 2022, published 2024).
# Tested on: hair follicle
# Details: Capixyl techsheet page 38
substance,measurement,value
acetyl tetrapeptide-3,stimulation of hair growth versus market reference Minoxidil,"stimulate hair growth better than the market reference, Minoxidil"
